Assay results as given in ChEMBL document CHEMBL1649393, “Synthesis and antimicrobial activity of thiosemicarbazides, s-triazoles and their Mannich bases bearing 3-chlorophenyl moiety” (2011).
≈ marks a conversion by molar mass, not a printed value.

What was measured:
Type in all cases: functional
Micrococcus luteus [1] = test: Antimicrobial activity against Micrococcus luteus ATCC 10240 after 18 hrs by broth microdilution method; details: ATCC 10240, 18 h
Bacillus cereus [2] = test: Antimicrobial activity against Bacillus cereus ATCC 10876 after 18 hrs by broth microdilution method; details: ATCC 10876, 18 h
[3] = tested on: Staphylococcus epidermidis; test: Antimicrobial activity against Staphylococcus epidermidis ATCC 12228 after 18 hrs by broth microdilution method; details: ATCC 12228, 18 h
Staphylococcus aureus [4] = test: Antimicrobial activity against Staphylococcus aureus ATCC 25923 after 18 hrs by broth microdilution method; details: ATCC 25923, 18 h
Bacillus subtilis [5] = test: Antimicrobial activity against Bacillus subtilis ATCC […] after 18 hrs by broth microdilution method
Staphylococcus aureus [6] = test: Antimicrobial activity against Staphylococcus aureus ATCC 6538 after 18 hrs by broth microdilution method; details: ATCC 6538, 18 h
Klebsiella pneumoniae [7] = test: Antimicrobial activity against Klebsiella pneumoniae ATCC 13883 assessed as >99.9 % reduction in CFU after 18 hrs by broth microdilution method; details: ATCC 13883, 18 h, read-out: MBC
Staphylococcus aureus [8] = test: Antimicrobial activity against Staphylococcus aureus ATCC 6538 assessed as >99.9 % reduction in CFU after 18 hrs by broth microdilution method; details: ATCC 6538, 18 h
Klebsiella pneumoniae [9] = test: Antimicrobial activity against Klebsiella pneumoniae ATCC 13883 after 18 hrs by broth microdilution method; details: ATCC 13883, 18 h
Micrococcus luteus [10] = test: Antimicrobial activity against Micrococcus luteus ATCC 10240 assessed as >99.9 % reduction in CFU after 18 hrs by broth microdilution method; details: ATCC 10240, 18 h
[11] = tested on: Staphylococcus epidermidis; test: Antimicrobial activity against Staphylococcus epidermidis ATCC 12228 assessed as >99.9 % reduction in CFU after 18 hrs by broth microdilution method; details: ATCC 12228, 18 h
Bacillus subtilis [12] = test: Antimicrobial activity against Bacillus subtilis ATCC […] assessed as >99.9 % reduction in CFU after 18 hrs by broth microdilution method
Escherichia coli [13] = test: Antimicrobial activity against Escherichia coli ATCC 25922 assessed as >99.9 % reduction in CFU after 18 hrs by broth microdilution method; details: ATCC 25922, 18 h
Escherichia coli [14] = test: Antimicrobial activity against Escherichia coli ATCC 25922 after 18 hrs by broth microdilution method; details: ATCC 25922, 18 h
Proteus mirabilis [15] = test: Antimicrobial activity against Proteus mirabilis ATCC 12453 assessed as >99.9 % reduction in CFU after 18 hrs by broth microdilution method; details: ATCC 12453, 18 h, read-out: MBC
Staphylococcus aureus [16] = test: Antimicrobial activity against Staphylococcus aureus ATCC 25923 assessed as >99.9 % reduction in CFU after 18 hrs by broth microdilution method; details: ATCC 25923, 18 h
Bacillus cereus [17] = test: Antimicrobial activity against Bacillus cereus ATCC 10876 assessed as >99.9 % reduction in CFU after 18 hrs by broth microdilution method; details: ATCC 10876, 18 h
Proteus mirabilis [18] = test: Antimicrobial activity against Proteus mirabilis ATCC 12453 after 18 hrs by broth microdilution method; details: ATCC 12453, 18 h, read-out: MIC

| Compound | MIC (Micrococcus luteus [1]) | MIC (Bacillus cereus [2]) | MIC [3] | MIC (Staphylococcus aureus [4]) | MIC (Bacillus subtilis [5]) | MIC (Staphylococcus aureus [6]) | MBC (Klebsiella pneumoniae [7]) | MBC (Staphylococcus aureus [8]) | MIC (Klebsiella pneumoniae [9]) | MBC (Micrococcus luteus [10]) | MBC [11] | MBC (Bacillus subtilis [12]) | MBC (Escherichia coli [13]) | MIC (Escherichia coli [14]) | MBC (Proteus mirabilis [15]) | MBC (Staphylococcus aureus [16]) | MBC (Bacillus cereus [17]) | MIC (Proteus mirabilis [18]) |
| --- | --- | --- | --- | --- | --- | --- | --- | --- | --- | --- | --- | --- | --- | --- | --- | --- | --- | --- |
| O=C(NNC(=S)Nc1ccc(F)cc1)c1cccc(Cl)c1 | > 1000 µg/mL | > 1000 µg/mL | > 1000 µg/mL | > 1000 µg/mL | > 1000 µg/mL | > 1000 µg/mL |  |  |  |  |  |  |  |  |  |  |  |  |
| S=c1n(CN2CCCC2)nc(-c2cccc(Cl)c2)n1-c1ccc(I)cc1 | 125 µg/mL (≈ 252 µM) | 125 µg/mL (≈ 252 µM) | 250 µg/mL (≈ 503 µM) | 125 µg/mL (≈ 252 µM) | 125 µg/mL (≈ 252 µM) | 250 µg/mL (≈ 503 µM) | > 1000 µg/mL | 1000 µg/mL (≈ 2010 µM) | 1000 µg/mL (≈ 2010 µM) | > 1000 µg/mL | > 1000 µg/mL | 1000 µg/mL (≈ 2010 µM) | > 1000 µg/mL | > 1000 µg/mL | > 1000 µg/mL | 1000 µg/mL (≈ 2010 µM) | > 1000 µg/mL | > 1000 µg/mL |
| S=c1[nH]nc(-c2cccc(Cl)c2)n1-c1ccc(Br)cc1 | 31.2 µg/mL (≈ 85.2 µM) | 15.6 µg/mL (≈ 42.6 µM) | 31.2 µg/mL (≈ 85.2 µM) | 31.2 µg/mL (≈ 85.2 µM) | 15.6 µg/mL (≈ 42.6 µM) | 31.2 µg/mL (≈ 85.2 µM) |  |  |  |  |  |  |  |  |  |  |  |  |
| Cc1ccc(-n2c(-c3cccc(Cl)c3)n[nH]c2=S)cc1 | > 1000 µg/mL | > 1000 µg/mL | > 1000 µg/mL | > 1000 µg/mL | > 1000 µg/mL | > 1000 µg/mL |  |  |  |  |  |  |  |  |  |  |  |  |
| S=c1[nH]nc(-c2cccc(Cl)c2)n1-c1ccccc1I | > 1000 µg/mL | > 1000 µg/mL | > 1000 µg/mL | > 1000 µg/mL | > 1000 µg/mL | > 1000 µg/mL |  |  |  |  |  |  |  |  |  |  |  |  |
| COc1ccc(NC(=S)NNC(=O)c2cccc(Cl)c2)cc1 | 62.5 µg/mL (≈ 186 µM) | 125 µg/mL (≈ 372 µM) | 125 µg/mL (≈ 372 µM) | 62.5 µg/mL (≈ 186 µM) | 125 µg/mL (≈ 372 µM) | 125 µg/mL (≈ 372 µM) |  |  |  |  |  |  |  |  |  |  |  |  |
| S=c1[nH]nc(-c2cccc(Cl)c2)n1-c1ccccc1 | > 1000 µg/mL | > 1000 µg/mL | > 1000 µg/mL | > 1000 µg/mL | 125 µg/mL (≈ 434 µM) | > 1000 µg/mL |  |  |  |  |  |  |  |  |  |  |  |  |
| COc1ccc(-n2c(-c3cccc(Cl)c3)n[nH]c2=S)cc1 | > 1000 µg/mL | > 1000 µg/mL | > 1000 µg/mL | > 1000 µg/mL | > 1000 µg/mL | > 1000 µg/mL |  |  |  |  |  |  |  |  |  |  |  |  |
| O=C(NNC(=S)Nc1ccccc1Br)c1cccc(Cl)c1 | 62.5 µg/mL (≈ 162 µM) | 62.5 µg/mL (≈ 162 µM) | 125 µg/mL (≈ 325 µM) | 62.5 µg/mL (≈ 162 µM) | 125 µg/mL (≈ 325 µM) | 31.2 µg/mL (≈ 81.2 µM) |  |  |  |  |  |  |  |  |  |  |  |  |
| CC1(C)S[C@@H]2[C@H](NC(=O)[C@H](N)c3ccccc3)C(=O)N2[C@H]1C(=O)O [AMPICILLIN] | 6 µg/mL (≈ 17.2 µM) | 62.5 µg/mL (≈ 179 µM) | 6 µg/mL (≈ 17.2 µM) | 2 µg/mL (≈ 5.72 µM) | 3 µg/mL (≈ 8.59 µM) | 3 µg/mL (≈ 8.59 µM) |  |  |  |  |  |  |  |  |  |  |  |  |
| Fc1ccc(F)c(-n2c(-c3cccc(Cl)c3)n[nH]c2=S)c1 | 1000 µg/mL (≈ 3090 µM) | 1000 µg/mL (≈ 3090 µM) | 250 µg/mL (≈ 772 µM) | > 1000 µg/mL | 1000 µg/mL (≈ 3090 µM) | > 1000 µg/mL |  |  |  |  |  |  |  |  |  |  |  |  |
| O=C(NNC(=S)Nc1cc(F)ccc1F)c1cccc(Cl)c1 | 62.5 µg/mL (≈ 183 µM) | 125 µg/mL (≈ 366 µM) | 125 µg/mL (≈ 366 µM) | 62.5 µg/mL (≈ 183 µM) | 125 µg/mL (≈ 366 µM) | 62.5 µg/mL (≈ 183 µM) |  |  |  |  |  |  |  |  |  |  |  |  |
| O=C(NNC(=S)Nc1ccc(Br)cc1)c1cccc(Cl)c1 | 15.6 µg/mL (≈ 40.6 µM) | 15.6 µg/mL (≈ 40.6 µM) | 15.6 µg/mL (≈ 40.6 µM) | 15.6 µg/mL (≈ 40.6 µM) | 31.2 µg/mL (≈ 81.2 µM) | 15.6 µg/mL (≈ 40.6 µM) |  |  |  |  |  |  |  |  |  |  |  |  |
| O=C(NNC(=S)Nc1ccc(I)cc1)c1cccc(Cl)c1 | 31.2 µg/mL (≈ 72.4 µM) | 15.6 µg/mL (≈ 36.2 µM) | 31.2 µg/mL (≈ 72.4 µM) | 31.2 µg/mL (≈ 72.4 µM) | 31.2 µg/mL (≈ 72.4 µM) | 31.2 µg/mL (≈ 72.4 µM) |  |  |  |  |  |  |  |  |  |  |  |  |
| O=C(NNC(=S)Nc1ccccc1)c1cccc(Cl)c1 | 125 µg/mL (≈ 409 µM) | 125 µg/mL (≈ 409 µM) | 125 µg/mL (≈ 409 µM) | 125 µg/mL (≈ 409 µM) | 125 µg/mL (≈ 409 µM) | 125 µg/mL (≈ 409 µM) |  |  |  |  |  |  |  |  |  |  |  |  |
